Measurements reported in patent US6525059B1, “Substituted pyrazoles as p38 kinase inhibitors” (G. D. Searle & Company, priority 1998, dated 2003).
Like-named read-outs stand apart in the source and are kept apart here.

Key:
TNF-α = assay: LPS stimulation of TNF production by U937 cells; format: cell-based, human; conditions: Homo sapiens, U-937, LPS-stimulated U937 cells
Outline: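 PMA-differentiated human U937 cells (20 ng/ml PMA, 24 h, then 24-48 h rest) at 2 million cells/ml, 0.1% DMSO final, stimulated with E. coli LPS (100 ng/ml final) for 4 h at 37° C. TNF-α in medium measured by ELISA; IC50 in μM.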

TNF a = assay: LPS stimulation of human PBMs, TNF a by ELISA; format: cell-based; conditions: LPS-stimulated human PBMs, TNF cell assay; read-out: Human PBM Assay IC50
Description: Human whole blood was collected in Vacutainer tubes containing EDTA as an anticoagulant. A blood sample (7 ml) was carefully layered over 5 ml PMN Cell Isolation Medium (Robbins Scientific) in a 15 ml round bottom centrifuge tube. The sample was centrifuged at 450-500×g for 30-35 minutes in a swing out rotor at room temperature. After centrifugation, the top band of cells were removed and washed 3 times with PBS w/o calcium or magnesium. The cells were centrifuged at 400×g for 10 minutes at room temperature. The cells were resuspended in Macrophage Serum Free Medium (Gibco BRL) at a concentration of 2 million cells/ml.
Compounds were dissolved in DMSO initially and diluted in TCM for a final-concentration of 0.1% DMSO. LPS (Calbiochem, 20 ng/ml, final concentration) was then added at a volume of 0.010 ml. Cultures were incubated overnight at 37° C. Supernatants were then removed and tested by ELISA for TNF a and IL1-b. Viability was analyzed using MTS. After 0.1 ml supernatant was collected, 0.0,20 ml MTS was added to remaining 0.1 ml cells.

human p38 kinase alpha = biological target: T1, human p38 kinase alpha (Homo sapiens, UniProt Q16539); assay: p38 kinase in vitro assay, phosphorylation of biotinylated PHAS-I with gamma 32P-ATP; format: biochemical
T1 construct: The coding region of the human p38a cDNA was obtained by PCR-amplification from RNA isolated from the human monocyte cell line THP.1; GST (N); made in house; host or cells: E. coli DH10B
Outline: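 Radiometric filter-capture read-out: streptavidin plates trap biotin-PHAS-I labelled by activated (MKK6) human p38α from γ-32P-ATP. Buffer 25 mM HEPES pH 7.5, 10 mM magnesium acetate, 50 μM cold ATP; reactions 1 h or overnight at 30 °C; inhibitors 10-fold dilutions 100 to 0.001 μM, triplicates, 1% DMSO.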

TNF alpha = assay: Mouse model of LPS-induced TNF alpha production; format: in vivo; conditions: mouse, oral, 1h before LPS, 30 mpk; read-out: mLPS 1h, 30 mpk percent inhibition
Description: TNF alpha was induced in 10-12 week old BALB/c female mice by tail vein injection with 100 ng lipopolysaccharide (from S. Typhosa) in 0.2 ml saline. One hour later mice were bled from the retroorbital sinus and TNF concentrations in serum from clotted blood were quantified by ELISA.
Efficacy was determined at each time point as percent inhibition of serum TNF levels relative to LPS injected mice that received vehicle only
wherein in the dose is milligram per kilogram (mpk) administered by oral gavage and the predose time indicates the number of hours before LPS challenge when the compound is administered.

[1] = biological target: T2, human GST-p38 kinase alpha (Homo sapiens, UniProt Q16539); assay: p38 kinase in vitro assay, second format, phosphorylation of EGFRP with 33P-ATP; format: biochemical; conditions: p38α in vitro, EGFRP assay procedure; read-out: p38^2 IC50
T2 construct: The coding region of the human p38a cDNA was obtained by PCR-amplification from RNA isolated from the human monocyte cell line THP.1; made in house; host or cells: E. coli DH10B
Outline: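 Activated human GST-p38α (pre-activated with GST-MKK6, 1 h, 30 °C) phosphorylates EGFR 21-mer peptide (200 μM) with 50 μM ATP plus γ-33P-ATP, pH 7.5, 60 min at room temperature. Unreacted ATP removed by AG 1×8 resin; supernatant scintillation-counted.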

[2] = activated human p38 kinase alpha, PHAS-I substrate, 50 μM unlabeled ATP, read-out: p38 kinase IC50
[3] = p38α in vitro, PHAS-I assay procedure, read-out: p38^1 IC50

T1 sequence (Q16539 whole entry): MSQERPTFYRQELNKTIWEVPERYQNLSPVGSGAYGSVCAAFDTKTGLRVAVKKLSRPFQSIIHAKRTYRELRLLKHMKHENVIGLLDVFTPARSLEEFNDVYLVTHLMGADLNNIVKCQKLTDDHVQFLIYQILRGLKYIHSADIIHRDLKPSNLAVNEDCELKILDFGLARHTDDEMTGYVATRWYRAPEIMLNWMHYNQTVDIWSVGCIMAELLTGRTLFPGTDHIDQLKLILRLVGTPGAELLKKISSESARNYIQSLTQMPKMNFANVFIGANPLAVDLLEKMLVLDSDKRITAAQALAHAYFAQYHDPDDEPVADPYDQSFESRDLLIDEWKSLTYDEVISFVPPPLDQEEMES
T2 sequence (Q16539 whole entry): as above

Compound	IC50 (TNF a) [nM]	IC50 (TNF-α; read-out: U937 IC50) [nM]	IC50 [1] [nM]	inhibition in vivo at 30 mg/kg (TNF alpha) [%]	other results
Cc1[nH]nc(-c2ccc(F)cc2)c1-c1ccncc1 [Example 4, 4-[3-(4-fluorophenyl)-5-methyl-1H-pyrazol-4-yl)pyridine]	100				IC50 (TNF-α; read-out: U937 Cell Assay IC50): 222 nM
COc1ccc(-c2[nH]nc(C)c2-c2ccncc2)cc1F [Example A-1, 4-[5-(3-fluoro-4-methoxyphenyl)-3-methyl-1H-pyrazol-4-yl]pyridine]	500				IC50 (human p38 kinase alpha; [2]): 4600 nM
Cc1n[nH]c(-c2ccc(Cl)cc2)c1-c1ccncc1 [Example A-7, 4-(3-(4-chlorophenyl)-5-methyl-1H-pyrazol-4-yl)pyridine]	200				IC50 (TNF-α; read-out: U937 Cell Assay IC50): 201 nM
Cc1cccc(-c2[nH]nc(C)c2-c2ccncc2)c1 [Example A-8]	< 100				IC50 (human p38 kinase alpha; [2]): < 100 nM
Cc1ccc(C)c(-c2[nH]nc(C)c2-c2ccncc2)c1 [Example A-9]	400				
Cc1n[nH]c(-c2ccc3c(c2)OCO3)c1-c1ccncc1 [Example A-10, 4-[5-(1,3-benzodioxol-5-yl)-3-methyl-1H-pyrazol-4-yl]pyridine]	700				IC50 (TNF-α; read-out: U937 Cell Assay IC50): 1690 nM
Cc1n[nH]c(-c2ccc(-c3ccccc3)cc2)c1-c1ccncc1 [Example A-12, 4-[5-[(1,1′-biphenyl)-4-yl]-3-methyl-1H-pyrazol-4-yl]pyridine]	8500				
Cc1n[nH]c(-c2cccc(Oc3ccccc3)c2)c1-c1ccncc1 [Example A-13]	4800				
Cc1n[nH]c(-c2cccc(OCc3ccccc3)c2)c1-c1ccncc1 [Example A-14, 4-[3-methyl-5-[3-(phenylmethoxy)phenyl]-1H-pyrazol-4-yl]pyridine]	1200				
Cc1n[nH]c(-c2cccc(O)c2)c1-c1ccncc1 [Example A-17, 3-[3-methyl-4-(4-pyridinyl)-1H-pyrazol-4-yl]phenol]	1100				
CN(C)c1n[nH]c(-c2ccc(F)cc2)c1-c1ccncc1 [Example A-19, 5-(4-fluorophenyl)-N, N-dimethyl-4-(4-pyridinyl)-1H-pyrazol-3-amine]	300				melting point: 245 to 247 °C; IC50 (TNF-α; read-out: U937 Cell Assay IC50): 484 nM
Cc1cccc(-c2[nH]nc(C(F)(F)F)c2-c2ccncc2)c1 [Example A-22, 4-[5-(3-methylphenyl)-3-(trifluoromethyl)-1H-pyrazol-4-yl]pyridine]	3200				melting point: 237 to 239 °C
Cc1n[nH]c(C2CCCCC2)c1-c1ccncc1 [Example A-24]	8200				
CCc1[nH]nc(-c2cccc(C)c2)c1-c1ccncc1 [Example A-45]	< 100				IC50 (human p38 kinase alpha; [2]): < 100 nM
Cn1cc(-c2ccncc2)c(-c2ccc(F)cc2)n1 [Example A-212, 4-[3-(4-fluorophenyl)-1-methyl-1H-pyrazol-4-yl]pyridine]		96.7	740	93	IC50 (human p38 kinase alpha; [3]): 490 nM
Cn1nc(-c2ccc(F)cc2)c(-c2ccncc2)c1Br [Example A-214, 4-[5-bromo-3-(4-fluorophenyl)-1-methyl-1H-pyrazol-4-yl]pyridine]			60	70	melting point: 174.38 °C
N#Cc1cc(-c2c[nH]nc2-c2ccc(F)cc2)ccn1 [Example A-215, 4-[3-(4-fluorophenyl)-1H-pyrazol-4-yl]-2-pyridinecarbonitrile]		298	2340	80	melting point: 209.22 °C
c1cc(-c2c[nH]nc2-c2ccc3c(c2)OCO3)ccn1 [Example A-228, 4-[3-(1,3-benzodioxol-5-yl)-1H-pyrazol-4-yl]pyridine]		417	339	92	IC50 (human p38 kinase alpha; [3]): 760 nM

More lines, main results first:

IC50 (TNF a) [nM]	IC50 (TNF-α; read-out: U937 IC50) [nM]	IC50 [1] [nM]	Compound	inhibition in vivo at 30 mg/kg (TNF alpha) [%]	other results
	1200	774	Cn1cc(-c2ccncc2)c(-c2ccc(C(F)(F)F)cc2)n1 [Example A-252, 4-[1-methyl-3-[4-(trifluoromethyl)phenyl]-1H-pyrazol-4-yl]pyridine]	75	
	4.4	< 1	CC(Nc1cc(-c2c[nH]nc2-c2ccc(F)cc2)ccn1)c1ccc(F)cc1 (stereo not drawn) [Example A-253, N-[1-(4-fluorophenyl)ethyl]-4-[3-(4-fluorophenyl)-1H-pyrazol-4-yl]-2-pyridinamine]	61	
	1210	480	Cc1cnccc1-c1c[nH]nc1-c1ccc(F)cc1 [Example A-258, 4-[3-(4-fluorophenyl)-1H-pyrazol-4-yl]-3-methylpyridine]	68	
	757	170	Cc1cnccc1-c1cn(C)nc1-c1ccc(F)cc1 [Example A-259, 4-[3-(4-fluorophenyl)-1-methyl-1H-pyrazol-4-yl]-3-methylpyridine]	62	
	1280	230	Cn1cc(-c2ccnc(F)c2)c(-c2ccc(F)c(F)c2)n1 [Example A-260, 4-[3-(3,4-difluorophenyl)-1-methyl-1H-pyrazol-4-yl]-2-fluoropyridine]	79	
	254	8	CN(C)CCn1cc(-c2ccncc2)c(-c2ccc(F)cc2)n1 [Example A-261, 3-(4-fluorophenyl)-N,N-dimethyl-4-(4-pyridinyl)-1H-pyrazole-1-ethanamine]	92	
	327	< 100	Cn1cc(-c2ccnc(CCc3ccc(F)cc3)c2)c(-c2ccc(F)cc2)n1 [Example A-262, 2-[2-(4-fluorophenyl)ethyl]-4-[3-(4-fluorophenyl)-1-methyl-1H-pyrazol-4-yl]pyridine]	45	
	543	< 100	Fc1ccc(-c2n[nH]cc2-c2ccnc(NC3CCN(Cc4ccccc4)CC3)c2)cc1 [Example A-263, 4-[3-(4-fluorophenyl)-1H-pyrazol-4-yl]-N-[1-(phenylmethyl)-4-piperidinyl]-2-pyridinamine]	49	IC50 (human p38 kinase alpha; [3]): < 10 nM
	602	< 100	Fc1ccc(-c2n[nH]cc2-c2ccnc(-c3c[nH]nc3-c3ccc(F)cc3)c2)cc1 [Example A-265, 2,4-bis[3-(4-fluorophenyl)-1H-pyrazol-4-yl]pyridine]	32	
	2670	430	OCCn1cc(-c2ccnc(F)c2)c(-c2ccc(F)cc2)n1 [Example A-267, 3-(4-fluorophenyl)-4-(2-fluoro-4-pyridinyl)-1H-pyrazole-1-ethanol]	80	
	7.4	< 100	Fc1ccc(-c2n[nH]cc2-c2ccnc(NCCn3ccnc3)c2)cc1 [Example A-268, 4-[3-(4-fluorophenyl)-1H-pyrazol-4-yl]-N-[2-(1H-imidazol-1-yl)ethyl]-2-pyridinamine]	11	
	347	15	OCCn1cc(-c2ccnc(/C=C/c3ccc(F)cc3)c2)c(-c2ccc(F)cc2)n1 [Example A-270, (E)-3-(4-fluorophenyl)-4-[2-[2-(4-fluorophenyl)ethenyl]-4-pyridinyl]-1H-pyrazole-1-ethanol]	53	
	4210	216	CN(C)CCn1cc(-c2ccnc(F)c2)c(-c2ccc(F)cc2)n1 [Example A-271, 3-(4-fluorophenyl)-4-(2-fluoro-4-pyridinyl)-N,N-dimethyl-1H-pyrazole-1-ethanamine]	68	
